Experimental data as given in PMC8197855, “Peptide/β-Peptoid Hybrids with Activity against Vancomycin-Resistant Enterococci: Influence of Hydrophobicity and Structural Features on Antibacterial and Hemolytic Properties” (International Journal of Molecular Sciences, 2021).
≈ marks a conversion by molar mass, not a printed value.

Legend:
E. faecalis 39002 = assay: microbe, parasite or virus in culture; type: cell-based, Enterococcus faecalis; details: 39002, 24 h
Description: (§1) Overnight cultures of the enterococcal isolates were diluted in physiological saline (0.9% NaCl) to reach a turbidity of 0.5 McFarland units (Sensititre® nephelometer and the Sensititre® McFarland Standard). Bacterial suspensions were adjusted to 5 × 10^5 CFU/mL in MHB II or BHI broth containing two-fold dilutions of peptidomimetics or conventional antibiotics in a final volume of 100 µL. The plates were incubated for 24 h at 37 °C without shaking. […] All experiments were performed in three biological replicates.

E. faecalis 38262 = assay: microbe, parasite or virus in culture; type: cell-based, Enterococcus faecalis; details: 38262, 24 h
Description: as §1

E. faecium ATCC 19434 [1] = assay: Broth checkerboard assay with conventional antibiotics; type: cell-based, Enterococcus faecium
Description: The strain culture preparation and final volume were the same as in the MIC assay. […] The plates were incubated for 24 h at 37 °C without shaking. […] All experiments were performed in two biological replicates.
To evaluate the effect of the combinations, the fractional inhibitory concentration index (FICI) was calculated for each combination according to:ΣFIC = FICA + FICB = (CA/MICA) + (CB/MICB)
The drug interaction was scored as follows: synergy—FICI ≤ 0.5; no interaction—FICI > 0.5–4; antagonism—FICI > 4 [40].

E. faecium (MV388) = assay: Membrane integrity, propidium iodide uptake by flow cytometry; type: cell-based, Enterococcus faecium; details: peptidomimetics at MBC, nisin at MIC; 5 min
Description: (§2) Membrane integrity was assessed by using a propidium iodide (PI) uptake assay, as previously described. In brief, 2 μL of stationary enterococcal cultures were transferred to Falcon round-bottom tubes (14 mL; Corning), each containing 2 mL fresh BHI medium. Cultures were grown to an OD600 of 0.2 at 37 °C with shaking (180 rpm). […] Then, 15 μL of culture was transferred into 980 μL filtered phosphate-buffered saline, and then stained for 5 min with 5 μL of 0.1 mg/mL PI. After staining, the red fluorescence levels (FL3 channel) in cells were recorded by using a BD Biosciences Accuri C6 flow cytometer (Becton Dickinson). The settings of the flow cytometer were as follows: 25,000 recorded events at an FSC threshold of 15,000, and medium flow rate. The gating of the stained cell population and analysis of flow cytometry data were performed in CFlow (BD Accuri). The assessment of membrane integrity was performed in three biological replicates for each condition.

human red blood cells = assay: Hemolytic activity; type: cell-based; details: 60 min, 37 °C, 1% red blood cell suspension
How it was run: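 Washed cells (1% suspension) incubated with compound at final 400 μg/mL, 60 min at 37 °C with mild agitation, triplicate wells. Released hemoglobin read at OD405 in supernatant; percent hemolysis normalised to 1% SDS (100%) and PBS (0%).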

E. faecium isolates = type: cell-based, Enterococcus faecium; details: 24 h
Description: as §1

E. faecalis (MV269) = assay: Membrane integrity, propidium iodide uptake by flow cytometry; type: cell-based, Enterococcus faecalis; details: peptidomimetics at MBC, nisin at MIC; 5 min
Description: as §2

E. faecium ATCC 19434 [2] = assay: Time-kill kinetics; type: cell-based, Enterococcus faecium; details: for Reduction in viable bacteria (time-kill): up to 5 h exposure, BHI broth
Description: Time–kill kinetics were established for compounds 2, 5 and 10 in E. faecium ATCC 19434 and E. faecalis ATCC 29212. Prior to the experiments, the isolates were incubated on BHI agar supplemented with 5% calf blood at 37 °C overnight (ON). For each of the strains 1-2 colonies were transferred into 4 mL BHI broth and incubated ON at 37 °C with shaking (180 rpm). OD600 was measured, and then cultures were diluted with BHI broth to an OD600 of 0.05 and grown for approximately 2 h to reach the exponential phase.
One untreated control per strain was prepared. The inoculum was quantified by plating and subsequently enumerated. The initial inocula were approximately 10^7 CFU/mL. Two controls were included, both without bacteria and one including the respective compound without bacteria. All tubes were incubated at 37 °C with shaking (180 rpm). Samples of 100 µL were taken after 1 h, 3 h and 5 h of exposure. Appropriate dilutions were spread onto BHI agar plates and incubated at 37 °C overnight, and then colonies were enumerated. Plates were incubated for 24 h and 48 h, and then checked for the appearance of slow-growing colonies. The experiments were performed with at least three biological replicates for each condition and time point.

E. faecalis isolates = type: cell-based, Enterococcus faecalis; details: 24 h
Description: as §1

[3] = Hydrophobicity by analytical RP-HPLC (% MeCN at peak elution); type: physicochemical
Description: Water was filtered by using an Evoqua LaboStar PRO TWF Ultra Pure Water System prior to use in high-performance liquid chromatography (HPLC). The retention time for each peptidomimetic was determined by analytical HPLC using a Phenomenex Luna C18(2) HST column (100 mm × 3 mm; particle size: 2.5 μm; pore size: 100 Å) on a Shimadzu Prominence and Shimadzu Nexera system using an aqueous MeCN gradient with 0.1% trifluoroacetic acid (TFA) added (eluent A: 5:95 MeCN–H2O + 0.1% TFA; eluent B: 95:5 MeCN–H2O + 0.1% TFA); a flow rate of 0.5 mL/min was used. For the elution of peptidomimetics, a linear gradient of 0% to 60% B over 10 min was used with UV detection at λ = 220 nm. The percentage MeCN at peak elution was calculated from the retention time (tR) by using the following formula:%MeCN = [0.95 × 0.6 × tR/10 + 0.05 × (1 − 0.6 × tR/10)] × 100%

[4] = system: E. faecium and E. faecalis isolates; assay: MIC summarised over all isolates; type: cell-based, Enterococcus faecium and Enterococcus faecalis; details: summary over all isolates
Description: as §1

SMILES | Minimum inhibitory concentration (E. faecalis 39002) | Minimum inhibitory concentration (E. faecalis 38262) | Effect on the MIC of rifampicin (E. faecium ATCC 19434 [1]; compound supplemented at 0.25× MIC) | Reduction in the MIC of rifampicin (E. faecium ATCC 19434 [1]; compound supplemented at 0.5× MIC) | Propidium iodide (PI) uptake, membrane integrity (E. faecium (MV388)) | Hemolysis (at 400 µg/mL) (human red blood cells) | MIC (range or typical value) against E. faecium (E. faecium isolates) | Propidium iodide (PI) uptake, membrane integrity (E. faecalis (MV269)) | Reduction in viable bacteria (time-kill) (E. faecium ATCC 19434 [2]; 4× MIC) | MIC (range) against E. faecalis (E. faecalis isolates) | Hydrophobicity, Luna C18(2) HST (0–60% B; 10 min), retention converted into % MeCN [3] | Reduction in viable cell counts within 1 h (E. faecium ATCC 19434 [2]; 4× MIC, within 1 h of exposure) | MIC (range) against all E. faecium and E. faecalis isolates [4] | Bactericidal or bacteriostatic mode of action (E. faecium ATCC 19434 [2]; 8 µg/mL (4× MIC))
CCCCCCCC(=O)N[C@@H](CCCCN)C(=O)N(CCC(=O)N[C@@H](CCCCN)C(=O)N(CCC(=O)N[C@@H](CCCCN)C(=O)N(CCC(=O)N[C@@H](CCCCN)C(=O)N(CCC(=O)N[C@@H](CCCCN)C(=O)N(CCC(=O)N[C@@H](CCCCN)C(=O)N(CCC(N)=O)[C@@H](C)c1ccccc1)[C@@H](C)c1ccccc1)[C@@H](C)c1ccccc1)[C@@H](C)c1ccccc1)[C@@H](C)c1ccccc1)[C@@H](C)c1ccccc1 [Compound 10, Oct-[Lys-βNspe]6-NH2] | 8 µg/mL (≈ 4.07 µM) | 16 µg/mL (≈ 8.15 µM) | no effect | 4–8 fold | less perturbation of membrane integrity | 6.9% | 2 to 8 µg/mL | less perturbation of membrane integrity | 4 log | 4 to 16 µg/mL | 47.2 % MeCN |  |  | 
CC(=O)N[C@@H](CCCCNC(=N)N)C(=O)N(CCC(=O)N[C@@H](CCCCN)C(=O)N(CCC(=O)N[C@@H](CCCCNC(=N)N)C(=O)N(CCC(=O)N[C@@H](CCCCN)C(=O)N(CCC(=O)N[C@@H](CCCCNC(=N)N)C(=O)N(CCC(=O)N[C@@H](CCCCN)C(=O)N(CCC(N)=O)[C@@H](C)c1ccccc1)[C@@H](C)C1CCCCC1)[C@@H](C)c1ccccc1)[C@@H](C)C1CCCCC1)[C@@H](C)c1ccccc1)[C@@H](C)C1CCCCC1 [Compound 5, Ac-[hArg-βNsce-Lys-βNspe]3-NH2] | 8 to 16 µg/mL | 8 to 16 µg/mL |  |  | less perturbation of membrane integrity | 9.4% |  | less perturbation of membrane integrity | 1.5 log | 4 to 16 µg/mL | 46.6 % MeCN | no reduction in viable cell counts |  | 
CC(=O)N[C@@H](CCCCNC(=N)N)C(=O)N(CCC(=O)N[C@@H](CCCCNC(=N)N)C(=O)N(CCC(=O)N[C@@H](CCCCNC(=N)N)C(=O)N(CCC(=O)N[C@@H](CCCCNC(=N)N)C(=O)N(CCC(=O)N[C@@H](CCCCNC(=N)N)C(=O)N(CCC(=O)N[C@@H](CCCCNC(=N)N)C(=O)N(CCC(N)=O)[C@@H](C)C1CCCCC1)[C@@H](C)C1CCCCC1)[C@@H](C)C1CCCCC1)[C@@H](C)C1CCCCC1)[C@@H](C)C1CCCCC1)[C@@H](C)C1CCCCC1 [Compound 2, Ac-[hArg-βNsce]6-NH2] | 2 µg/mL (≈ 0.922 µM) | 4 µg/mL (≈ 1.84 µM) |  |  | significant accumulation of PI |  |  | significant accumulation of PI | approximately 3 log |  | 51.6 % MeCN |  | 2 to 4 µg/mL | bactericidal
